The values that follow come from PubChem BioAssay (NCI).

Structures are written as SMILES. Several values for one entry are separate records, joined by “and”; a condition that tells them apart may be missing. Equal entries are not always repeated.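 Tested at 5 concentrations; 48 h exposure; 96-well plates; endpoints linearly interpolated, else capped at highest concentration. GI50 marks 50% less growth. TGI: concentration producing complete growth inhibition.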

The subject of this test is MDA-MB-468 breast. In words: DTP human tumour cell line panel, 48 h.
Consider `O=C(c1ccc(OCCN2CCCCC2)cc1)c1c(-c2ccc(O)cc2)sc2cc(O)ccc12`, for which the GI50 was 3.04 µM and 3.13 µM; the TGI was 15.8 µM and 12.2 µM.
For the compound `Cc1ncc(C(=O)Nc2ccc(CN3CCN(C)CC3)c(C(F)(F)F)c2)cc1C#Cc1cnc(N)c2cnccc12`, the GI50 is 0.169 µM and the TGI came to 1.69 µM.
With `O=C1OC2C(O)COC2(O)C1(O)C(C[N+](=O)[O-])c1ccc(Cl)cc1` (stereo unspecified), the GI50 was 16.9 µM and the TGI turned out to be 44 µM.
For the compound `CC(C)CC1C(=O)N2CCC[C@H]2C2(O)O[C@](NC(=O)C3C=C4c5cccc6[nH]c(Br)c(c56)C[C@H]4N(C)C3)(C(C)C)C(=O)N12` (stereo partly specified), the GI50 is 3.09 µM and the TGI worked out at 39.3 µM.
For `Cc1cc(C(=O)Nc2nc3cccc(Cl)c3n2[C@@H]2CCCCN(C(=O)/C=C/CN(C)C)C2)ccn1`, the GI50 was 0.102 µM and the TGI was determined as 1.27 µM.
Taken in the same sequence, the figures for `C[C@@H](N)C1CCC(C(=O)Nc2ccncc2)CC1` (stereo partly specified) were above 100 µM and above 100 µM.
`O=C1Oc2ccccc2C(=O)/C1=C/N1C(=O)/C(=C/c2ccc3c(c2)OCO3)SC1=S`: the GI50 was 12.1 µM and the TGI was 42 µM.
Consider `COc1ccccc1-c1cc(/C=C2\C(=O)Nc3ncc(Br)cc32)cc(Br)c1O`, for which the GI50 is 7.4 µM and the TGI is above 25 µM.
For `CN[C@@H](C)C(=O)N[C@H]1CN(C(=O)CC(C)C)CC[C@H]2CC[C@@H](C(=O)NC(c3ccccc3)c3ccccc3)N2C1=O` the same measures were 39.2 µM and above 100 µM.
In the case of `COC(=O)[C@H]1[C@@H](O)[C@@]2(O)c3c(OC)cc(O[C@@H]4O[C@@H]([C@H](O)CO)CO[C@H]4OC)cc3O[C@@]2(c2ccc(OC)cc2)[C@@H]1c1ccccc1`, the GI50 is 0.00293 µM and the concentration for total growth inhibition (TGI) is 0.0112 µM.
For `Cn1cc(-c2csc(-c3cn(C)c4ccc(Br)cc34)n2)c2cnccc21`, the GI50 was 1.79 µM and the TGI came out at 3.46 µM.
For `CNC(=O)c1c(NC(=O)c2ccc(C(F)(F)F)cc2)sc2c1CCC(=O)C2` the same measures were 0.924 µM and 3.8 µM.
As to `CCNCCC1(CC)C(=O)NC(=O)NC1=O`, the GI50 was above 100 µM and the TGI is above 100 µM.
Regarding `CCN1C(=O)N(CC)C2C1NN=c1s/c(=C\c3ccccc3F)c(=O)n12` (stereo unspecified), the GI50 was 0.027 µM and the TGI is above 48.1 µM.
Consider `Cc1cccc(-c2nn3c(c2-c2ccnc4ccc(C(N)=O)cc24)CCC3)n1`, for which the GI50 is above 100 µM and the TGI was above 100 µM.
On to `C/C1=C/C(=O)O[C@@H]2C[C@@H](CC[C@H](C)/C=C\C=C\CC1)O[C@@](O)([C@@H]1CSC(=O)N1CO)C2`, for which the GI50 is 0.0243 µM and the TGI was determined as 0.0765 µM.
For `COc1cc2c(F)nccc2cc1C(=O)N[C@@H](c1ccc(F)c(Cl)c1)[C@@H]1C[C@@H](O)CN1`, the GI50 is 0.0527 µM and the TGI is 2.33 µM.
For `O=C1/C(=C\c2ccc(F)cc2)CN(C(=O)c2ccc([N+](=O)[O-])cc2)C/C1=C\c1ccc(F)cc1` the same measures were 1.38 µM and 3.68 µM.
Taken in the same sequence, the figures for `O=Nc1ccc(O)c2ccccc12` were 5.85 µM and 27.4 µM.
`COc1ccccc1/C=C/C(=O)c1c(O)cc2occc2c1OC`: the GI50 was 10.3 µM and the TGI stood at 45.5 µM.
On to `O=C(CCCCCCCn1cc(-c2cccnc2)nn1)Nc1ccccc1-c1ccccc1`, for which the GI50 is 4.74 µM and the TGI is above 51.6 µM.
For the compound `NC(=NCCCC1(c2ccccc2)CCCC1)Nc1ccc(Cl)cc1`, the GI50 was 1.65 µM and the TGI was 3.25 µM.
Taken in the same sequence, the figures for `N#Cc1nc(-c2ccccc2)oc1S(=O)(=O)N1CCCCC1` were 10.2 µM and 28.5 µM.
For `CCN(CC)CCCC(C)Nc1cc(-c2ccc(C(F)(F)F)cc2)c(C#N)c2nc3ccccc3n12` (stereo unspecified) the same measures were 1.75 µM and 3.35 µM.
On to `CCC(CC)n1c(=O)c(SC2=NC3C(NN2)N(CC)C(=O)N3CC)c(C(=O)O)c2ccccc21` (stereo unspecified), for which the GI50 was 0.92 µM and the TGI turned out to be 27.8 µM.
For `O=C1CC2(CCOCC2)Oc2ncccc21` the same measures were 3.23 µM and 15.3 µM.
For `COC(=O)[C@H]1C(=O)[C@@]2(C)[C@H]([C@H](OC(=O)c3ccccc3)[C@]3(O)C[C@H](OC(=O)[C@H](O)[C@@H](NC(=O)c4ccc(F)cc4)c4ccccc4)C(C)=C1C3(C)C)[C@]1(OC(C)=O)CO[C@@H]1C[C@@H]2O`, the GI50 is 0.00874 µM and the TGI worked out at 6.46 µM.
For `CCCCCCCCCCCCNC(=O)[C@H]1CSC(c2cc3ccccc3s2)N1` (stereo partly specified) the same measures were 1.09 µM and 4.11 µM.
Taken in the same sequence, the figures for `O=C(N/N=C/c1ccccc1O)C(O)(c1ccccc1)c1ccccc1` were 4.62 µM and above 100 µM.
Regarding `Nc1ccccc1SC(CC(=O)c1ccccc1)c1ccc([N+](=O)[O-])cc1` (stereo unspecified), the GI50 was 14.4 µM and the TGI was 31 µM.
Regarding `C=C(C)[C@@H]1CC[C@]2(C(N)=O)CC[C@]3(C)[C@H](CC[C@@H]4[C@@]5(C)CC[C@H](O)C(C)(C)[C@@H]5CC[C@]43C)[C@@H]12`, the GI50 was 3.2 µM and the TGI came to 11.9 µM.
In the case of `Cc1ccc(S(=O)(=O)Oc2ccc([N+](=O)[O-])cc2[N+](=O)[O-])cc1`, the GI50 is 13.2 µM and the TGI amounted to 28.4 µM.
For `Cc1ccc2c(c1)C(C)Cc1c(ncnc1-n1cnc3cc(C)ccc31)N2C` (stereo unspecified) the same measures were 0.0414 µM and 19 µM.
Taken in the same sequence, the figures for `O=C1/C=C/[C@@H](O)[C@@H]2C[C@@H](O)C[C@H]2/C=C/CCC[C@H](CCc2ccc(C(F)(F)F)cc2)O1` were 0.0281 µM and 0.0829 µM.
In the case of `CN1CCC(CNc2ccc3ncc(-c4cccc(OC(F)(F)F)c4)n3n2)CC1`, the GI50 is 1.24 µM and 1.11 µM; the TGI is 2.74 µM and 3.28 µM.
As to `COc1cc(-c2nc(NC(C)=O)sc2-c2ccnc(NCCNS(=O)(=O)c3ccccc3)n2)ccc1Cl`, the GI50 was 2.56 µM and the TGI was 9.61 µM.
Taken in the same sequence, the figures for `NC(=O)C1c2ccccc2C=Cc2ccccc21` were 78.6 µM and above 100 µM.
`COc1ccc(CCN2CCCN3C2=Nc2ccccc2S3(=O)=O)cc1`: the GI50 was 0.312 µM and the TGI was above 100 µM.
For `COc1cccc(Cn2c(-c3nonc3N)nc3ccccc32)c1`, the GI50 was 0.312 µM.
For `CC(C)CCSC1=CC(=O)c2ccccc2C1=O`, the GI50 was 0.43 µM and the TGI came to 2.19 µM.
Taken in the same sequence, the figures for `COc1ccc(-c2nsc3c2NC(=O)CC3c2ccc(F)cc2)cc1` (stereo unspecified) were 2.18 µM and above 30 µM.
